PMC7827648 (Molecules, 2021)
Values joined by “and” are separate entries in the source; they are usually repeats but may differ in a detail not shown here. Equal entries are not always repeated. Where two headings read alike, the source gives them in different places.

Legend:
[1] = tested on: RD (rhabdomyosarcoma) cells; assay: Cytotoxicity, MTT assay, RD cells; type: cell-based; conditions: Homo sapiens, read-out: IC50, 50% inhibition of the cell population growth, 72 h, mean ± SD
Experimental: (§1) The cytotoxicity of the newly synthesized Schiff bases was evaluated in vitro in a panel of cultured tumor cells, assessing cell viability at scalar concentrations of the test compounds (≤500 μM) by MTT (i.e., 3-(4,5-dimethylthiazol-2-yl)-2,5-diphenyltetrazolium bromide) and Alamar Blue assays, using doxorubicin as the positive controls. Most of the compounds were tested against RD (rhabdomyosarcoma), HCT116 (intestinal carcinoma), HeLa (adenocarcinoma of the cervix uterus) and A549 (lung adenocarcinoma) cell lines, whereas five representative compounds of the subsets were tested also against K562 (chronic myelogenous leukemia) tumor cells.
(§2) The experiments were carried out in triplicate.

[2] = tested on: HCT116 (intestinal carcinoma) cells; assay: Cytotoxicity, MTT assay, HCT116 cells; type: cell-based; conditions: Homo sapiens, HCT-116, read-out: IC50, 50% inhibition of the cell population growth, 72 h, mean ± SD
Experimental: as §1, §2

[3] = tested on: HeLa (adenocarcinoma of the cervix uterus) cells; assay: Cytotoxicity, MTT assay, HeLa cells; type: cell-based; conditions: Homo sapiens, read-out: IC50, 50% inhibition of the cell population growth, 72 h, mean ± SD
Experimental: as §1, §2

[4] = tested on: A549 (lung adenocarcinoma) cells; assay: Cytotoxicity, MTT assay, A549 cells; type: cell-based; conditions: Homo sapiens, read-out: IC50, 50% inhibition of the cell population growth, 72 h, mean ± SD
Experimental: as §1, §2

[5] = tested on: K562 (chronic myelogenous leukemia) cells; assay: Cytotoxicity, Alamar Blue (resazurin) assay, K562 cells; type: cell-based; conditions: Homo sapiens, read-out: IC50, 50% inhibition of the cell population growth, 72 h, mean ± SD
Experimental: as §1, §2

[6] = molecular target: human acetylcholinesterase (AChE) (Homo sapiens, UniProt P22303); assay: biochemical; conditions: for IC50: human recombinant AChE, pH 8.0, mean ± SD (n = 3), read-out: IC50 hAChE
Experimental: (§3) The ChE inhibition assay was carried out using the Ellman’s spectrophotometric method [23], as applied to the 96-well plate technique [24] on a Tecan Infinite M1000 Pro instrument (Cernusco s.N., Italy).

[7] = molecular target: T1, human butyrylcholinesterase (BChE) (Homo sapiens, UniProt P06276); assay: BChE inhibition, Ellman's method; type: biochemical; conditions: mean ± SD (n = 3), n.i. = no inhibition; for % inhibition hBChE: at 10 μM
T1 construct: BChE from human serum (50 U/mg); from tissue; host or cells: human serum
Experimental: as §3

[8] = molecular target: T2, β-amyloid (Aβ)1–40 self-aggregation (Homo sapiens, UniProt P05067); assay: Inhibition of self-induced Aβ40 aggregation, thioflavin T fluorescence; type: biochemical; conditions: Aβ40 30 μM, 2% HFIP, ThT, mean ± SD (n = 3); for IC50: PBS pH 7.4, 2 h
T2 construct: self-aggregation of Aβ peptides 1–40 (Aβ40)
Experimental: Molecules able to inhibit simultaneously AChE and β-amyloid (Aβ) aggregation/neurotoxicity may have potential as drugs for the treatment of AD [14]. Herein, the new DHPPIQ derivatives were evaluated for the inhibitory effects on the self-aggregation of Aβ peptides 1–40 (Aβ40), through a test based on the measurement of thioflavin T (ThT) fluorescence. Quercetin, which is a strong inhibitor of in vitro Aβ self-aggregation, was used as a positive control.
Each compound was initially tested at a 100-μM concentration. […] […].
According to an already reported 96-well plate procedure, the test compounds at 100 μM were incubated with Aβ40 (30 μM) and 2% HFIP (1,1,1,3,3,3-hexafluoro-2-propanol), used as aggregation enhancer in PBS pH 7.4 for 2 h at room temperature. After the addition of ThT, the fluorescence was read at the 440/485 nm excitation/emission wavelength. Experiments were performed in triplicate, and the % inhibition values calculated as mean ± SD.

human MAO A = molecular target: T3, human MAO A (Homo sapiens, UniProt P21397); assay: biochemical; conditions: for inhibition at 10 µM: read-out: % inhibition hMAO A
T3 construct: host or cells: baculovirus-infected insect cells (microsomes)
T3 sequence (P21397 1-527): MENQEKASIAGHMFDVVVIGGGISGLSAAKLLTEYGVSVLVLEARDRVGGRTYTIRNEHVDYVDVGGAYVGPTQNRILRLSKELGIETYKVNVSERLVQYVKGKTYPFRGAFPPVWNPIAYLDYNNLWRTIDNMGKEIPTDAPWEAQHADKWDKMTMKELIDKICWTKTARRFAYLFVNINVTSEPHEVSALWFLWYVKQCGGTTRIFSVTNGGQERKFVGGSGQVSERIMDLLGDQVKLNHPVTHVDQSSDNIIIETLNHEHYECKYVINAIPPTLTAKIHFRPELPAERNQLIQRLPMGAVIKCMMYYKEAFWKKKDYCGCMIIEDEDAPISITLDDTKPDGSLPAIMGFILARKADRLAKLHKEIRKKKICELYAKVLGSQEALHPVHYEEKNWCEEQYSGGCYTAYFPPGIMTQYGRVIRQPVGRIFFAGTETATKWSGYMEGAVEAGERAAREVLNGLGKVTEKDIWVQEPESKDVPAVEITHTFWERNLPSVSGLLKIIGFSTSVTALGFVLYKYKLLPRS
Experimental: (§4) The inhibition of human recombinant MAO A (250 U/mg) and B (59 U/mg; microsomes from baculovirus-infected insect cells) was evaluated using the reported 96-well plate technique [12]. on a Tecan Infinite M1000 Pro instrument (Cernusco s.N., Italy). […] After addition of the enzyme and 30 min of incubation, NaOH was added and the fluorescence read at the 310/400 excitation/emission wavelength.

human MAO B = molecular target: T4, human MAO B (Homo sapiens, UniProt P27338); assay: biochemical; conditions: for inhibition at 10 µM: mean ± SD (n = 3), read-out: % inhibition hMAO B
T4 construct: host or cells: baculovirus-infected insect cells (microsomes)
T4 sequence (P27338 1-520): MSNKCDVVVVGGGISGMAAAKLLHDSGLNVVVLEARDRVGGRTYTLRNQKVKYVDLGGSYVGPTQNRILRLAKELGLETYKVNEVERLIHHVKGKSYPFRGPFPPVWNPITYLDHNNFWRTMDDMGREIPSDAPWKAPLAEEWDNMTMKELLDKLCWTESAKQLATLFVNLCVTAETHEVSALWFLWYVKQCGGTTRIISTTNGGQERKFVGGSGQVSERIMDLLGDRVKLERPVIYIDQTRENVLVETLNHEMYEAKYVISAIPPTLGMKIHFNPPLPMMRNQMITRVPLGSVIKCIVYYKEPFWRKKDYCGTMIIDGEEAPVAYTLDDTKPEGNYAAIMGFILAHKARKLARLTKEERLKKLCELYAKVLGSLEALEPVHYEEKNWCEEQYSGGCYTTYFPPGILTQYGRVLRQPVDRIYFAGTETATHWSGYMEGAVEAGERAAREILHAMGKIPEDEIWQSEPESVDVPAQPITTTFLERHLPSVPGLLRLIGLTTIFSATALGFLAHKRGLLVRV
Experimental: as §4

in vitro = conditions: human, SH-SY5Y neuroblastoma cells
[9] = tested on: RD (rhabdomyosarcoma) cells; parameters: method as in doi:10.1055/s-0036-1588486; conditions: read-out: IC50, 50% inhibition of the cell population growth, RD, data taken from ref [3]; cited from earlier work
[10] = tested on: HCT116 (intestinal carcinoma) cells; parameters: method as in doi:10.1055/s-0036-1588486; conditions: read-out: IC50, 50% inhibition of the cell population growth, HCT116, data taken from ref [3]; cited from earlier work
[11] = tested on: A549 (lung adenocarcinoma) cells; parameters: method as in doi:10.1055/s-0036-1588486; conditions: read-out: IC50, 50% inhibition of the cell population growth, A549, data taken from ref [3]; cited from earlier work
[12] = tested on: HeLa (adenocarcinoma of the cervix uterus) cells; parameters: method as in doi:10.1055/s-0036-1588486; conditions: read-out: IC50, 50% inhibition of the cell population growth, HeLa, data taken from ref [3]; cited from earlier work

T1 sequence (P06276 29-602): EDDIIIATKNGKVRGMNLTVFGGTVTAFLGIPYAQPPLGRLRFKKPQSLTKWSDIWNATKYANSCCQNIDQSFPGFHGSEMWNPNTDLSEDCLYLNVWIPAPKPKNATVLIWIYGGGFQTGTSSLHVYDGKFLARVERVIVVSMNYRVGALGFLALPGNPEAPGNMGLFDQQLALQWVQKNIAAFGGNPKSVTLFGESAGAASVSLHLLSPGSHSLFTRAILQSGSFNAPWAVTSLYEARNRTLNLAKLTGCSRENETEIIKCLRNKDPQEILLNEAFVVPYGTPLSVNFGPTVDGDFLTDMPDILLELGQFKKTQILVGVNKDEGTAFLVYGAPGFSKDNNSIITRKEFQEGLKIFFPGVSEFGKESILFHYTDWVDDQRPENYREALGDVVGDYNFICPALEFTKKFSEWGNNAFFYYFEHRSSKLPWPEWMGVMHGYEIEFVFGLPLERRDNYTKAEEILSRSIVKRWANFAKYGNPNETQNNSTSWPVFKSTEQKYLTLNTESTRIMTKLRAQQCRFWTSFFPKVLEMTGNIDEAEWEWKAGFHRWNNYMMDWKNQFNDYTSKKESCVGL
Sequence of human acetylcholinesterase (AChE) (P22303 32-614): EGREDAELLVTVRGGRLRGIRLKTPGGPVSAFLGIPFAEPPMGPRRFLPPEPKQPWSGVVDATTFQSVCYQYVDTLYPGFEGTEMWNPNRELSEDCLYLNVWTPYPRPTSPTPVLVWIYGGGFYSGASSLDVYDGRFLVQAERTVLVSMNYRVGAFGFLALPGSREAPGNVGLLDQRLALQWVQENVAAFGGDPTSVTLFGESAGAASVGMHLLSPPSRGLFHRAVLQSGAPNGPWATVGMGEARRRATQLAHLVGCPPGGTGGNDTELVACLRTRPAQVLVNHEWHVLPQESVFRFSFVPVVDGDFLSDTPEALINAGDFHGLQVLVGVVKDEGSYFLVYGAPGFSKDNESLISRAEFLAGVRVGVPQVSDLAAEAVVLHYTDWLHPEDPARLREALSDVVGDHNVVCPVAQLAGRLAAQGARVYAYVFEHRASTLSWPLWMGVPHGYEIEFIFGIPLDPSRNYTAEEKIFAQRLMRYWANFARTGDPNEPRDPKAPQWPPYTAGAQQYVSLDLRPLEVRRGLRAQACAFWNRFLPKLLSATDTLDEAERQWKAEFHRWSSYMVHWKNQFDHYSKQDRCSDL
T2 sequence (P05067 672-711 limits assumed): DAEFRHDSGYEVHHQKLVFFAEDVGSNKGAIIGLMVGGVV

SMILES | IC50 [1] [µM] | IC50 [2] [µM] | IC50 [3] [µM] | IC50 [4] [µM] | melting point [°C] | IC50 at 72 h (in vitro) [µM] | also measured
COc1ccc(/N=C/c2c(-c3ccc(F)cc3)c3n(c2-c2ccccc2)CCc2cc(OC)c(OC)cc2-3)cc1 [Compound 12, (E)-1-(1-(4-fluorophenyl)-8,9-dimethoxy-3-phenyl-5,6-dihydropyrrolo[2,1-a]isoquinolin-2-yl)-N-(4-methoxyphenyl)methanimine] | > 500 | 148 ± 14 | 450 ± 19 | > 500 | 195 to 197 | – | –
CCOc1ccc(-c2c(CN(C)CCNC)cn3c2-c2cc(OCC)c(OCC)cc2CC3)cc1OCC.O=C(O)/C=C/C(=O)O [Compound 17a, 2-(([1-(3,4-diethoxyphenyl]-8,9-diethoxy-5,6-dihydropyrrolo[2,1-a]isoquinolin-2-yl)methyl)(methyl)amino)-N-methylethan-1-aminium (E)-3-carboxyacrylate] | 10.1 ± 0.1 | 18.6 ± 0.4 | 29.7 ± 0.9 | 35.9 ± 2.4 | – | 17.9 ± 0.1 | IC50 [5]: 46.6 ± 1.5 µM; inhibition mechanism on hAChE ([6]; Michaelis-Menten / Lineweaver-Burk plots): noncompetitive/mixed-type inhibition mechanism; Ki ([6]; complete kinetics, human AChE, read-out: inhibition constant (Ki) hAChE): 13.6 ± 0.1 µM; IC50 [6]: 16 µM and 16.4 µM; % inhibition hBChE [7]: n.i.; inhibition at 100 µM ([8]; at 100 μM): 31 ± 3%; inhibition at 10 µM (human MAO A): 38 ± 5%; IC50 (human MAO B): 14.3 ± 1.4 µM
COc1ccc(/N=C/c2cn3c(c2-c2ccc(Cl)cc2)-c2cc(OC)c(OC)cc2CC3)cc1 [Compound 9, (E)-1-(1-(4-chlorophenyl)-8,9-dimethoxy-5,6-dihydropyrrolo[2,1-a]isoquinolin-2-yl)-N-(4-methoxyphenyl)methanimine] | 76.4 ± 4.7 | 37.2 ± 2.4 | 35.2 ± 0.7 | 99.4 ± 1.1 | – | 22.1 ± 0.8 | IC50 [5]: 105 ± 8 µM; IC50 [6]: 29.3 ± 2.3 µM; inhibition at 10 µM ([7]; read-out: % inhibition hBChE): 13 ± 4%; IC50 [8]: 46 ± 5 µM; inhibition at 10 µM (human MAO A; at 10 μM, mean ± SD (n = 3)): 39 ± 2%; inhibition at 10 µM (human MAO B): 29 ± 5%
CCOc1ccc(-c2c(C=O)c(-c3ccccc3)n3c2-c2cc(OCC)c(OCC)cc2CC3)cc1OCC [Compound 2] | – | – | – | – | – | – | IC50 [9]: 365 ± 23 µM; IC50 [10]: 183 ± 0.1 µM; IC50 [11]: 229 ± 21 µM
COc1ccc(/N=C/c2cn3c(c2-c2ccc(F)cc2)-c2cc(OC)c(OC)cc2CC3)cc1 [Compound 11, (E)-1-(1-(4-fluorophenyl)-8,9-dimethoxy-5,6-dihydropyrrolo[2,1-a]isoquinolin-2-yl)-N-(4-methoxyphenyl)methanimine] | 145 ± 1 | 114 ± 4 | 87.2 ± 1.1 | 153 ± 2.2 | – | 56.1 ± 2.4 | inhibition at 10 µM ([6]; at 10 μM, mean ± SD (n = 3), read-out: % inhibition hAChE): 40 ± 2%; % inhibition hBChE [7]: n.i.; IC50 [8]: 54 ± 2.2 µM; IC50 (human MAO A; human recombinant MAO A, kynuramine, mean ± SD (n = 3), read-out: IC50 hMAO A): 18.1 ± 1.2 µM; inhibition at 10 µM (human MAO B): 22 ± 4%
CCOc1ccc(-c2c(C=O)cn3c2-c2cc(OCC)c(OCC)cc2CC3)cc1OCC [Compound 1] | – | – | – | – | – | – | IC50 [9]: 21.3 ± 1.2 µM; IC50 [10]: 11.8 ± 0.1 µM; IC50 [12]: 44.5 ± 2 µM; IC50 [11]: 19.7 ± 0.3 µM
CCOc1ccc(-c2c(/C=N/N=C/c3cn4c(c3-c3ccc(OCC)c(OCC)c3)-c3cc(OCC)c(OCC)cc3CC4)cn3c2-c2cc(OCC)c(OCC)cc2CC3)cc1OCC [Compound 18, (1E,2E)-1,2-bis((1-[3,4-diethoxyphenyl]-8,9-diethoxy-5,6-dihydropyrrolo[2,1-a]isoquinolin-2-yl)methylene)hydrazine] | – | > 500 | 302 ± 23 | – | 230 to 232 | – | –
CCOc1ccc(-c2c(/C=N/c3ccc(OC)cc3)c(-c3ccccc3)n3c2-c2cc(OCC)c(OCC)cc2CC3)cc1OCC [Compound 8, (E)-1-(1-(3,4-diethoxyphenyl)-8,9-diethoxy-3-phenyl-5,6-dihydropyrrolo[2,1-a]isoquinolin-2-yl)-N-(4-methoxyphenyl)methanimine] | 412 ± 20 | 286 ± 5 | 304 ± 10 | – | 93 to 95 | – | –
